From patent US8790883B2, “Methods of identifying NF-κB inhibitors” (priority 2003, dated 2014)
Ends that are not written are not given here. Peptide text beside a SMILES is read from it. * marks the point of attachment. BODIPYFLEthylmaleimide = Cc1cc(C)n2c1C=C1C=CC(CCC(=O)NCCN3C(=O)CC(*)C3=O)=[N+]1[B-]2(F)F; BODIPY = not defined here

Columns and labels:
[1] = Cytotoxicity of NLM-DR derived peptides (MTS, FACS, microscope), Table 2
[2] = test system: LPS-induced NF-κB activation; assay: More stringent NF-κB inhibition assay, second procedure: peptide internalization, washing, 24 h growth, then LPS; format: cell-based, murine; conditions: 10 μM peptide
Source text: Left panels show a helical wheel diagram of CC2 (A) and LZ (B) peptides. The view is from the top the molecule. The (a) through (g) positions, which are an essential feature of coiled coil sequence (Vinson, 2002, Mol. Cell. Biol.) represent sequential positions in each peptide sequence. The first (a) and fourth (d) positions that are generally occupied by hydrophobic amino acids constitute the hydrophobic core for parallel as well as antiparallel-coiled coils. Mutations that were introduced in (a) positions of the CC2 variant (BODIPY-Ant-CC2 (Mu); shown as residues 6-40 of SEQ ID NO:3, with glycine mutations corresponding to residues 6-40 of SEQ ID NO:5) or in (d) positions of the LZ variant (BODIPY-Ant-(Mu) are shown. In the right panels, 70Z3-C3 cells were incubated for 2 hours in the absence (control) or in the presence of 10 μM of cell permeable wild type (BODIPY-Ant-CC2 (WT)) or mutant (BODIPY-Ant-CC2 (Mu)) CC2 peptides (A) or wild type (BODIPY-Ant-LZ (WT)) or mutant (BODIPY-Ant-(Mu)) LZ peptides (B). The cells were then extensively washed to remove the excess peptide which had not been internalized and the cells were then diluted three times and allowed to grow for 24 hours before treatment for 5 hours with (+) or without LPS (−). NF-κB activity was measured using the β-galactosidase assay. Error bars represent the standard deviation of two independent experiments.
(A) Sequence alignment of the NEMO-derived LZ (residues 301-336 of SEQ ID NO: 12) and the GCN4 peptides (residues 23-55 of SEQ ID NO:8). Both coiled-coil motifs were aligned using clustalX. Identical and similar amino acid residues (shaded) are indicated by (!) or (*), respectively. (B) Overview and helical wheel diagram of the GCN4 coiled-coil (top view). The amino-acid sequence of GCN4 is shown with its corresponding [a-g] positions and residues that differ from the corresponding NEMO-derived LZ sequence are boxed according to their degree of conservation. Identical (open square) and similar residues (open triangle) are indicated. […] NF-κB activity was measured using the b-galactosidase assay. […]

[3] = Analytical gel filtration, oligomeric states of peptides; format: physicochemical; conditions: 10 μM, Superdex 75, buffer with 0.1 mM DDM
Description: All peptides were loaded at a 10 μM concentration on a superdex 75 HR10/30 column equilibrated in a buffer containing 0.1 mM DDM to improve recovery (see “Materials and methods”). Chromatographic profiles of the CC2 mutant (dashed line) and the CC2 wild type (solid line) fused (BODIPY-Ant-CC2 (WT), BODIPY-Ant-CC2 (Mu), or not fused to the antennapedia sequence (CC2 (WT), CC2 (Mu)) are shown in left panels, and elution profiles of the LZ mutant (dashed line) and the wild type (solid line) fused (BODIPY-Ant-LZ (WT), BODIPY-Ant-LZ (Mu), or not fused to the antennapedia sequence (LZ (WT), LZ (Mu)) are represented in right panels. Elution volumes of globular protein markers are indicated by arrows: Oval, ovalbumin (43 kDa); Chym, chymotrypsinogene A (25 kDa); Ribo, Ribonuclease (13.4 kDa) and Apro, aprotinin (6.5 kDa).
The oligomeric states of peptides were determined by filtration as described in Traincard et al., 2003. In brief, 500 μl samples were loaded on a SUPERDEX™ 75 HR 10/30 column equilibrated in 50 mM Tris-HCl pH 8.0 containing 200 mM NaCl and 0.1 mM DDM, at a constant flow rate of 0.4 ml/min. The presence of the DDM detergent was added in the equilibrium buffer to minimize the adsorption in the column and to increase the peptide recovery. The column was calibrated in the same equilibrium buffer with blue dextran 2000 (void volume), dithioerythritol (total volume), bovine serum albumin (67 kDa, Rs=35.2 Å), ovalbumine (43 kDa, Rs=27.5 Å), chymotrypsinogen A (25 kDa, Rs=21.1 Å), ribonuclease A (13.7 kDa, Rs=16.4 Å), cytochrome C (12.4 kDa, Rs=17.7 Å) and aprotinin (6.5 KDa, Rs=13.5 Å).

[4] = test system: LPS-induced NF-κB activation; assay: NF-κB inhibition assay, first procedure: LPS-induced NF-κB dependent β-galactosidase reporter in 70Z/3-C3 cells; format: cell-based, murine; conditions: peptide 2 h, LPS 3 h, 70Z3-C3 cells (FIG. 3D)
Description: The resulting cell line, 70Z3-C3, was incubated for 2 hours in the absence or in the presence of 20 μM of antennapedia peptide (Ant), or BODIPY-labeled antennapedia peptide (BODIPY-Ant), or BODIPY-labeled antennapedia peptide coupled to CC2 (BODIPY-Ant-CC2) or LZ (BODIPY-Ant-LZ) peptides, After peptide internalization, cells were treated for 5 hours with LPS (3 μg/ml, (+) in left panel) or untreated (right panel and (−) in left panel) and the NF-κB activity was measured by β-galactosidase assay. Error bars represent the standard deviation of three separate experiments. (B) Concentration dependence of inhibition of LPS-induced NF-κB activation by BODIPY-Ant-CC2 peptide (left panel) or BODIPY-Ant-LZ peptide (right panel). Cells were treated as in (A) but with different concentration of peptide as indicated. The potential of each peptide to inhibit LPS-induced NF-κB activation was measured by determining the IC50 value that correspond to 50% inhibition of LPS-induced NF-κB activation as compared to the control (no peptide) (C). (D) Effect of the N-fusion sequence of antennapedia on the inhibition of NF-κB activation. Control (no peptide) or CC2, or LZ peptides, with (BODIPY-ANT-CC2, BODIPY-ANT-LZ) or without the antennapedia sequence at the N-terminus (CC2, LZ) were incubated for 2 hours with 70Z3-C3 cells followed with (+) or without (−) the LPS-treatment for 3 hours. NF-κB activity was then measured by β-galactosidase assay.
In a first procedure 2.2×10^5 70Z/3-C3 cells in 220 μl of RPMI 1640 supplemented with 10% fetal calf serum (FCS) and 50 μM β-mercaptoethanol were placed in a 96-well plate and incubated with various concentrations of peptide (0 to 20 μM) at 37° C. in 5% CO2 incubator. After two hours an equal portion (100 μl) of each cell sample transferred in two wells containing each 10^5 cells. One aliquot of cells was then treated for 5 hours with lipopolysaccharides from Salmonella abortus (Sigma) at 0.5 μg/ml final concentration, and the other one left-treated. After 5 hours, cells were centrifuged at 400×g for 5 min at room temperature and the cell pellets were washed three times with cold PBS (250 μl) by centrifugation. Cells were then lysed in the lysis buffer (25 mM tris-phosphate buffer at pH 7.8 containing 8 mM magnesium chloride, 1 mM dithioerythreitol, 1% Triton X-100, 15% glycerol and a protease inhibitor mixture (Roche)), and samples were centrifuged at 4° C. for 20 min to clarify the lysate. The supernatant was then kept on ice, and 30 μl was then assayed to measure the β-galactosidase activity with a plate luminometer (Berthold) using the GALACTON-STAR™ as chemiluminescent substrate (BD Biosciences Clontech, Bronstein et al., 1989). Background of reaction was measured by mixing for 1 hour 30 μl of lysis buffer with the reaction buffer (196 μl) and the GALACTON-STAR™ substrate (4 μl) provided by BD Biosciences. In a second procedure and a more stringent assay, 70Z/3-C3 cells (2.2×105 in 220 μl medium) were centrifuged at 400×g at room temperature after peptide internalization for 2 hours, and cell pellets were washed three times with 200 μl of PBS by centrifugation. Cells were then diluted three times with complete medium, and allowed to grow for at least 24 hours. The following steps are identical to the first procedure.
To analyze the inhibition potential of LPS-induced NF-κB activation by cell permeable BODIPY-Ant-CC2 and BODIPY-Ant-LZ peptides, the present inventors stably transfected the murine pre-B 70Z3 cell line with p12XlacZ-kB, which bears the β-galactosidase reporter gene under the control of the NF-κB transcription factor.

[5] = Circular dichroism studies of helix stability; format: physicochemical
Source text: From circular dichroism studies (CD), it appears that CC2 and LZ peptides adopt a helicoidal structure, depending on their concentration. […] RMN and Rayon X Diffraction studies have confirmed the structure of CC2.

In the case of CC[C@H](C)[C@H](NC(=O)[C@H](CC(=O)O)NC(=O)[C@H](C)NC(=O)[C@H](CCC(N)=O)NC(=O)[C@H](C)NC(=O)[C@H](CCCCN)NC(=O)[C@H](CC(C)C)NC(=O)[C@H](CCCCN)NC(=O)[C@H](CCCCN)NC(=O)[C@H](Cc1c[nH]c2ccccc12)NC(=O)[C@H](CCCCN)NC(=O)[C@H](CCSC)NC(=O)[C@H](CCCNC(=N)N)NC(=O)[C@H](CCCNC(=N)N)NC(=O)[C@H](CC(N)=O)NC(=O)[C@H](CCC(N)=O)NC(=O)[C@H](Cc1ccccc1)NC(=O)[C@H](Cc1c[nH]c2ccccc12)NC(=O)[C@@H](NC(=O)[C@H](CCCCN)NC(=O)[C@@H](NC(=O)[C@H](CCC(N)=O)NC(=O)[C@H](CCCNC(=N)N)NC(=O)[C@H](CSC1CC(=O)N(CCNC(=O)CCC2=[N+]3C(=Cc4c(C)cc(C)n4[B-]3(F)F)C=C2)C1=O)NC(C)=O)[C@@H](C)CC)[C@@H](C)CC)C(=O)N[C@@H](Cc1ccc(O)cc1)C(=O)N[C@@H](CCCCN)C(=O)N[C@@H](C)C(=O)N[C@@H](CCCNC(=N)N)C(=O)N[C@@H](Cc1ccccc1)C(=O)N[C@@H](CCC(N)=O)C(=O)N[C@@H](C)C(=O)N[C@@H](CCC(=O)O)C(=O)N[C@@H](CCCNC(=N)N)C(=O)N[C@@H](Cc1c[nH]cn1)C(=O)N[C@@H](C)C(=O)N[C@@H](CCCNC(=N)N)C(=O)N[C@@H](CCC(=O)O)C(=O)N[C@@H](CCCCN)C(N)=O (stereo partly drawn) [BODIPY-Ant-NLM-DR] (Ac-C(BODIPYFLEthylmaleimide)RQIKIWFQNRRMKWKKLKAQADIYKARFQAERHAREK-NH2), the “Cellular uptake relative efficiency (FACS)” value (70Z/3-C3 cells) is reported as “+”.

In the case of CC[C@H](C)[C@H](NC(=O)[C@H](CC(=O)O)NC(=O)[C@H](C)NC(=O)[C@H](CCC(N)=O)NC(=O)[C@H](C)NC(=O)[C@H](CCCCN)NC(=O)[C@H](CC(C)C)NC(=O)[C@H](CCCNC(=N)N)NC(=O)[C@H](CCCNC(=N)N)NC(=O)[C@H](CCCNC(=N)N)NC(=O)[C@H](CCCNC(=N)N)NC(=O)[C@H](CCCNC(=N)N)NC(=O)[C@H](CCCNC(=N)N)NC(=O)[C@H](CCCNC(=N)N)NC(=O)[C@H](CSC1CC(=O)N(CCNC(=O)CCC2=[N+]3C(=Cc4c(C)cc(C)n4[B-]3(F)F)C=C2)C1=O)NC(C)=O)C(=O)N[C@@H](Cc1ccc(O)cc1)C(=O)N[C@@H](CCCCN)C(=O)N[C@@H](C)C(=O)N[C@@H](CCCNC(=N)N)C(=O)N[C@@H](Cc1ccccc1)C(=O)N[C@@H](CCC(N)=O)C(=O)N[C@@H](C)C(=O)N[C@@H](CCC(=O)O)C(=O)N[C@@H](CCCNC(=N)N)C(=O)N[C@@H](Cc1c[nH]cn1)C(=O)N[C@@H](C)C(=O)N[C@@H](CCCNC(=N)N)C(=O)N[C@@H](CCC(=O)O)C(=O)N[C@@H](CCCCN)C(N)=O (stereo partly drawn) [BODIPY-R7-NLM-DR] (Ac-C(BODIPYFLEthylmaleimide)RRRRRRRLKAQADIYKARFQAERHAREK-NH2), the “Cytotoxicity Cell morphology FACS” value [1] is reported as “no”, the “Cytotoxicity Cell morphology Microscope” value [1] is reported as “no” and the “Cellular uptake relative efficiency (FACS)” value (70Z/3-C3 cells) is reported as “++++”.

With CC[C@H](C)[C@H](NC(=O)[C@H](CC(=O)O)NC(=O)[C@H](C)NC(=O)[C@H](CCC(N)=O)NC(=O)[C@H](C)NC(=O)[C@H](CCCCN)NC(=O)[C@H](CC(C)C)NC(=O)[C@H](CCCNC(=N)N)NC(=O)[C@H](CCCNC(=N)N)NC(=O)[C@H](CCCNC(=N)N)NC(=O)[C@H](CCCNC(=N)N)NC(=O)[C@H](CCCNC(=N)N)NC(=O)[C@H](CCCNC(=N)N)NC(=O)[C@H](CCCNC(=N)N)NC(=O)[C@H](CCCNC(=N)N)NC(=O)[C@H](CCCNC(=N)N)NC(=O)[C@H](CSC1CC(=O)N(CCNC(=O)CCC2=[N+]3C(=Cc4c(C)cc(C)n4[B-]3(F)F)C=C2)C1=O)NC(C)=O)C(=O)N[C@@H](Cc1ccc(O)cc1)C(=O)N[C@@H](CCCCN)C(=O)N[C@@H](C)C(=O)N[C@@H](CCCNC(=N)N)C(=O)N[C@@H](Cc1ccccc1)C(=O)N[C@@H](CCC(N)=O)C(=O)N[C@@H](C)C(=O)N[C@@H](CCC(=O)O)C(=O)N[C@@H](CCCNC(=N)N)C(=O)N[C@@H](Cc1c[nH]cn1)C(=O)N[C@@H](C)C(=O)N[C@@H](CCCNC(=N)N)C(=O)N[C@@H](CCC(=O)O)C(=O)N[C@@H](CCCCN)C(N)=O (stereo partly drawn) [BODIPY-R9-NLM-DR] (Ac-C(BODIPYFLEthylmaleimide)RRRRRRRRRLKAQADIYKARFQAERHAREK-NH2) the “Cytotoxicity Cell morphology FACS” value [1] was “no”, the “Cytotoxicity Cell morphology Microscope” value [1] was “no” and the “Cytotoxicity MTS Assay” value ([1]; MTS cell proliferation assay (Promega)) was “no”. For the same compound, the “Cellular uptake relative efficiency (FACS)” value (70Z/3-C3 cells) was “++”.

With “B-CRQIKIWFQNRRMKWKKSKGMQLEDLRQQGQQAEEAGVAKQELGDKLKEEAEQHKIV (C(BODIPY)RQIKIWFQNRRMKWKKSKGMQLEDLRQQGQQAEEAGVAKQELGDKLKEEAEQHKIV-NH2; not fully specified (N-terminus); printed as B-CRQIKIWFQNRRMKWKKSKGMQLEDLRQQGQQAEEAGVAKQELGDKLKEEAEQHKIV; reading uncertain) [BODIPY-Ant-CC2 (Mu)]” the “Effect on LPS-induced NF-κB activation” value [2] was “did not affect the NF-κB activation”.

In the case of “SKGMQLEDLRQQLQQAEEALVAKQELIDKLKEEAEQHKIV [CC2 (WT)]”, the “Oligomeric state by gel filtration” value [3] is reported as “trimer”, the “LPS-induced NF-κB activation, peptides not fused to antennapedia” value [4] is reported as “same level of activation as the control” and the “Helix stability by circular dichroism” value [5] is reported as “helix more stable than LZ”.
